The text below walks through data of patent US11242361B2 (Proteostasis Therapeutics, Inc., priority 2013, dated 2022).

As usually defined, the pIC50 is −log10 of the IC50, conventionally taken in molar units.

pIC50: −log10 of the molar value. Counter-ions that a name gives are not always drawn. Some results are limits rather than exact numbers.

For this experiment, the target named is USP14 (Homo sapiens (Human), UniProt P54578). Nature of the experiment: USP14 Inhibition Assay. It counts as biochemical. Particulars: average value from a minimum of two experimental determinations, read-out: IC50 Category. The protocol: Example 17: USP14 Inhibition Assay
Chain of USP14 (P54578 whole entry, looked up): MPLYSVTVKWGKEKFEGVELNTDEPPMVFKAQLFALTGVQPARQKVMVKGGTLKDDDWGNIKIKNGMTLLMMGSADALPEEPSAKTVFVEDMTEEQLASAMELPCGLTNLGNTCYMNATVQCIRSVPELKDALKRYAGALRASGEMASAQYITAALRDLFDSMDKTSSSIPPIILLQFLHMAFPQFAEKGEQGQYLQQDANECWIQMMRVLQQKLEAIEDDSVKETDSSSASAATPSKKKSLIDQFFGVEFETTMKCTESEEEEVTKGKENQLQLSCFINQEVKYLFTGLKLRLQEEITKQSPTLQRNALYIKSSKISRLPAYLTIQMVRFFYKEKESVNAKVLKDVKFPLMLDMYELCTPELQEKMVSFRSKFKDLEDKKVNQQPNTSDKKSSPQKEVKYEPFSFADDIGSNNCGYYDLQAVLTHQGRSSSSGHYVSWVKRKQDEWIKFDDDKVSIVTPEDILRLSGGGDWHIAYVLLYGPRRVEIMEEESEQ
“I” in the Table below designates an IC50 of >5 μM, “II” in the Table below designates and IC50 between 0.5 and 5 μM, and “III” designates an IC50<0.5 μM. The IC50 values in the Table below represent the average value from a minimum of two experimental determinations.
For the molecule `Cc1c(C(=O)CN2CCCCC2)c2ccc(C(C)C)cc2n1-c1ccc(C#N)cc1` [Compound 180, 4-(6-Isopropyl-2-methyl-3-(2-(piperidin-1-yl)acetyl)-1H-indol-1-yl)benzonitrile], the pIC50 is over 6.30.

Turning to `Cc1c(C(=O)CN2CCCCC2)c2ncccc2n1-c1ccc(C#N)nc1` [Compound 181, 5-(2-Methyl-3-(2-(piperidin-1-yl)acetyl)-1H-pyrrolo[3,2-b]pyridin-1-yl)picolinonitrile], the pIC50 was over 6.30.

For the molecule `Cc1c(C(=O)CN2CCCCC2)c2ccc(CO)cc2n1-c1ccc(Cl)cc1` [Compound 182, 1-(1-(4-Chlorophenyl)-6-(hydroxymethyl)-2-methyl-1H-indol-3-yl)-2-(piperidin-1-yl)ethan-1-one], the negative logarithm of the IC50 (pIC50) is over 6.30.

In the case of `CC(=O)NCc1ccc2c(c1)c(C(=O)CN1CCCCC1)c(C)n2-c1ccc(C#N)cc1` [Compound 183, N-((1-(4-Cyanophenyl)-2-methyl-3-(2-(piperidin-1-yl)acetyl)-1H-indol-5-yl)methyl)acetamide], the negative-log IC50 (pIC50) is over 6.30.

As for `Cc1cnc2c(C(=O)CN3CCCCC3)c(C)n(-c3ccc(C#N)cc3)c2c1` [Compound 184, 4-(2,6-Dimethyl-3-(2-(piperidin-1-yl)acetyl)-1H-pyrrolo[3,2-b]pyridin-1-yl)benzonitrile], the pIC50 was over 6.30.

Regarding `Cc1c(C(=O)CN2CCCCC2)c2ccc(CN)cc2n1-c1ccc(Cl)cc1` [Compound 185, 1-(6-(Aminomethyl)-1-(4-chlorophenyl)-2-methyl-1H-indol-3-yl)-2-(piperidin-1-yl)ethan-1-one], the negative-log IC50 (pIC50) is over 6.30.

Regarding `Cc1c(C(=O)CN2CCCCC2)c2cc(N)ccc2n1-c1ccc(C#N)cc1` [Compound 186, 4-(5-Amino-2-methyl-3-(2-(piperidin-1-yl)acetyl)-1H-indol-1-yl)benzonitrile], the pIC50 is over 6.30.

`Cc1c(C(=O)CN2CCCCC2)c2cc(NC(=O)C(C)(C)C)ccc2n1-c1ccc(C#N)cc1` [Compound 187, N-(1-(4-Cyanophenyl)-2-methyl-3-(2-(piperidin-1-yl)acetyl)-1H-indol-5-yl)pivalamide]: the pIC50 was over 6.30.

With `Cc1c(C(=O)CN2CCCCC2)c2ccc(CN(C)C)cc2n1-c1ccc(Cl)cc1` [Compound 188, 1-(1-(4-chlorophenyl)-6-((Dimethylamino)methyl)-2-methyl-1H-indol-3-yl)-2-(piperidin-1-yl)ethan-1-one], the negative-log IC50 (pIC50) was over 6.30.

As to `Cc1cnc2c(C(=O)CN3CCCC(F)C3)c(C)n(-c3ccc(C#N)cc3)c2c1` (stereo not shown) [Compound 189], the pIC50 is over 6.30.

Regarding `Cc1cnc2c(C(=O)CN3CCC(F)CC3)c(C)n(-c3ccc(C#N)cc3)c2c1` [Compound 190], the pIC50 was over 6.30.

In the case of `CC(=O)Nc1ccc2c(c1)c(C(=O)CN1CCCCC1)c(C)n2-c1ccc(C#N)cc1` [Compound 191, N-(1-(4-Cyanophenyl)-2-methyl-3-(2-(piperidin-1-yl)acetyl)-1H-indol-5-yl)acetamide], the negative logarithm of the IC50 (pIC50) was over 6.30.

Turning to `CN(C)c1c(C(=O)CN2CCCCC2)c2ccccc2n1-c1ccc(Cl)cc1` [Compound 192], the pIC50 is under 5.30.

As for `COc1cc2c(C(=O)CN3CCCCC3)c(C)n(-c3ccc(C#N)cc3)c2cc1OC(F)(F)F` [Compound 193], the negative logarithm of the IC50 (pIC50) was 5.30 to 6.30.

`Cc1c(C(=O)CN2CCCCC2)c2ccc(CCC(N)=O)cc2n1-c1ccc(C#N)cc1` [Compound 194, 3-(1-(4-Cyanophenyl)-2-methyl-3-(2-(piperidin-1-yl)acetyl)-1H-indol-6-yl)propanamide]: the pIC50 is over 6.30.

With `Cc1cc2c(nc1C)c(C(=O)CN1CCCCC1)c(C)n2-c1ccc(C#N)cc1` [Compound 195], the pIC50 is over 6.30.

On to `CC(=O)N(C)c1ccc2c(c1)c(C(=O)CN1CCCCC1)c(C)n2-c1ccc(C#N)cc1` [Compound 196, N-(1-(4-Cyanophenyl)-2-methyl-3-(2-(piperidin-1-yl)acetyl)-1H-indol-5-yl)-N-methylacetamide], for which the pIC50 is over 6.30.

Regarding `CCOC(=O)Cc1ccc2c(C(=O)CN3CCCCC3)c(C)n(-c3ccc(C#N)cc3)c2c1` [Compound 197], the pIC50 is over 6.30.

With `Cc1c(C(=O)CN2CCCCC2)c2ccc(CC(=O)O)cc2n1-c1ccc(C#N)cc1` [Compound 198, 2-(1-(4-Cyanophenyl)-2-methyl-3-(2-(piperidin-1-yl)acetyl)-1H-indol-6-yl)acetic Acid], the pIC50 is over 6.30.

As to `CNc1ccc2c(c1)c(C(=O)CN1CCCCC1)c(C)n2-c1ccc(C#N)cc1` [Compound 199, 4-(2-Methyl-5-(methylamino)-3-(2-(piperidin-1-yl)acetyl)-1H-indol-1-yl)benzonitrile], the pIC50 was over 6.30.

Consider `CCOC(=O)CCc1cc2c(nc1C)c(C(=O)CN1CCCCC1)c(C)n2-c1ccc(C#N)cc1` [Compound 200, Ethyl 3-(1-(4-Cyanophenyl)-2,5-dimethyl-3-(2-(piperidin-1-yl)acetyl)-1H-pyrrolo[3,2-b]pyridin-6-yl)propanoate], for which the pIC50 is over 6.30.

For the molecule `Cc1c(C(=O)CN2CCCCC2)c2ccc(CCC(=O)O)cc2n1-c1ccc(C#N)cc1` [Compound 201, 3-(1-(4-Cyanophenyl)-2-methyl-3-(2-(piperidin-1-yl)acetyl)-1H-indol-6-yl)propanoic Acid], the pIC50 is over 6.30.

With `Cc1nc2c(C(=O)CN3CCCCC3)c(C)n(-c3ccc(C#N)cc3)c2cc1CCC(=O)O` [Compound 202, 3-(1-(4-Cyanophenyl)-2,5-dimethyl-3-(2-(piperidin-1-yl)acetyl)-1H-pyrrolo[3,2-b]pyridin-6-yl)propanoic Acid Hydrochloride Salt], the pIC50 was over 6.30.

Take `Cc1c(C(=O)CN2CCCCC2)c2ccc(CC(N)=O)cc2n1-c1ccc(C#N)cc1` [Compound 203, 2-(1-(4-Cyanophenyl)-2-methyl-3-(2-(piperidin-1-yl)acetyl)-1H-indol-6-yl)acetamide]: the pIC50 was over 6.30.

As for `CCN(CC)C(=O)CCc1cc2c(nc1C)c(C(=O)CN1CCCCC1)c(C)n2-c1ccc(C#N)cc1` [Compound 204, 3-(1-(4-Cyanophenyl)-2,5-dimethyl-3-(2-(piperidin-1-yl)acetyl)-1H-pyrrolo[3,2-b]pyridin-6-yl)-N,N-diethylpropanamide], the negative logarithm of the IC50 (pIC50) is over 6.30.

As to `CC(=O)OCCc1ccc2c(C(=O)CN3CCCCC3)c(C)n(-c3ccc(C#N)cc3)c2c1` [Compound 205, 2-(1-(4-Cyanophenyl)-2-methyl-3-(2-(piperidin-1-yl)acetyl)-1H-indol-6-yl)ethyl Acetate], the pIC50 was over 6.30.

As for `C=Cc1ccc2c(C(=O)CN3CCCCC3)c(C)n(-c3ccc(C#N)cc3)c2c1` [Compound 206, 4-(2-Methyl-3-(2-(piperidin-1-yl)acetyl)-6-vinyl-1H-indol-1-yl)benzonitrile], the pIC50 is over 6.30.

For `Cc1c(C(=O)CN2CCCCC2)c2ccc(CCO)cc2n1-c1ccc(C#N)cc1` [Compound 207, 4-(6-(2-Hydroxyethyl)-2-methyl-3-(2-(piperidin-1-yl)acetyl)-1H-indol-1-yl)benzonitrile], the negative logarithm of the IC50 (pIC50) is over 6.30.

In the case of `Cc1c(C(=O)CN2CCCCC2)c2nc(-n3nccn3)ccc2n1-c1ccc(C#N)cc1` [Compound 208, 4-(2-Methyl-3-(2-(piperidin-1-yl)acetyl)-5-(2H-1,2,3-triazol-2-yl)-1H-pyrrolo[3,2-b]pyridin-1-yl)benzonitrile], the pIC50 was over 6.30.

Turning to `Cc1c(C(=O)CN2CCCCC2)c2nc(-n3ccnn3)ccc2n1-c1ccc(C#N)cc1` [Compound 209, 4-(2-Methyl-3-(2-(piperidin-1-yl)acetyl)-5-(1H-1,2,3-triazol-1-yl)-1H-pyrrolo[3,2-b]pyridin-1-yl)benzonitrile], the pIC50 is over 6.30.

In the case of `Cc1nc2c(C(=O)CN3CCCCC3)c(C)n(-c3ccc(C#N)cc3)c2cc1CCC(N)=O` [Compound 210, 3-(1-(4-Cyanophenyl)-2,5-dimethyl-3-(2-(piperidin-1-yl)acetyl)-1H-pyrrolo[3,2-b]pyridin-6-yl)propanamide], the pIC50 was over 6.30.

In the case of `COC(CNC(=O)CCc1cnc2c(C(=O)CN3CCCCC3)c(C)n(-c3ccc(C#N)cc3)c2c1)OC` [Compound 296], the pIC50 was over 6.30.

`Cc1c(C(=O)CN2CCCCC2)c2ncc(Br)cc2n1-c1ccc(C#N)cc1` [Compound 297, 4-(6-Bromo-2-methyl-3-(2-(piperidin-1-yl)acetyl)-1H-pyrrolo[3,2-b]pyridin-1-yl)benzonitrile]: the pIC50 is over 6.30.

In the case of `Cc1c(C(=O)CN2CCCCC2)c2ncc(CC(=O)N3CCCC3)cc2n1-c1ccc(C#N)cc1` [Compound 298, 4-(2-Methyl-6-(2-oxo-2-(pyrrolidin-1-yl)ethyl)-3-(2-(piperidin-1-yl)acetyl)-1H-pyrrolo[3,2-b]pyridin-1-yl)benzonitrile], the pIC50 is over 6.30.

For `Cc1c(C(=O)CN2CCCCC2)c2ncc(CCC(=O)NCCCN=[N+]=[N-])cc2n1-c1ccc(C#N)cc1` [Compound 299], the pIC50 is over 6.30.

`Cc1c(C(=O)CN2CCCCC2)c2ncc(C(F)(F)F)cc2n1-c1ccc(C#N)cc1` [Compound 300]: the pIC50 is over 6.30.

For `Cc1c(C(=O)CN2CCCCC2)c2ncc(C(F)F)cc2n1-c1ccc(C#N)cc1` [Compound 301, 4-(6-(Difluoromethyl)-2-methyl-3-(2-(piperidin-1-yl)acetyl)-1H-pyrrolo[3,2-b]pyridin-1-yl)benzonitrile], the pIC50 was over 6.30.

With `Cc1c(C(=O)CN2CCC(O)CC2)c2ncc(C(F)(F)F)cc2n1-c1ccc(C#N)cc1` [Compound 302], the pIC50 was over 6.30.

`CCN(CCc1cnc2c(C(=O)CN3CCCCC3)c(C)n(-c3ccc(Cl)cc3)c2c1)S(C)(=O)=O` [Compound 303, N-(2-(1-(4-Chlorophenyl)-2-methyl-3-(2-(piperidin-1-yl)acetyl)-1H-pyrrolo[3,2-b]pyridin-6-yl)ethyl)-N-ethylmethanesulfonamide]: the pIC50 was over 6.30.

For `Cc1c(C(=O)CN2CCCCC2)c2ncc(CCC(=O)NCCN=[N+]=[N-])cc2n1-c1ccc(C#N)cc1` [Compound 304], the pIC50 is over 6.30.
